Measurements published in patent publication US20070191336A1 (priority 2003, published 2007).
pIC50: −log10 of the molar value.

Target: T1, phospho p-38 alpha kinase (Homo sapiens, UniProt Q16539)
T1 construct: purchased Panvera
Assay: P-38 alpha kinase assay (spectrophotometric, pyruvate kinase/lactate dehydrogenase coupled)
Assay type: biochemical
Conditions: for pIC50: Table 3, rates from […] to 2 h time frame

[1] = read-out: % Inhibition @ concentration, Table 3

T1 sequence (Q16539 whole entry): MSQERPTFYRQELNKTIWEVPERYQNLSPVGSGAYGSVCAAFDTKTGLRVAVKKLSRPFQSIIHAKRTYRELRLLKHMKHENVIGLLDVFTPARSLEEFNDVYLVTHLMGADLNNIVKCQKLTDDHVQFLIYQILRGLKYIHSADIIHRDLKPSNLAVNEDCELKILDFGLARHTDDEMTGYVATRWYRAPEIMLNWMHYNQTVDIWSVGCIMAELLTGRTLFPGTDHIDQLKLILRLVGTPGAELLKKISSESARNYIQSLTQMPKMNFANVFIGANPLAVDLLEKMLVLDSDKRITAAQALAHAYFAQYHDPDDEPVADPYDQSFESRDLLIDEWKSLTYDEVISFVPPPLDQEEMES

| SMILES | pIC50 | other results |
| --- | --- | --- |
| CCOC(=O)C(C)Cc1ccc(-n2nc(C(C)(C)C)cc2NC(=O)Nc2cccc3ccccc23)cc1 (stereo not shown) [Example 427, ethyl 3-(4-{3-t-butyl-5-[3-(naphthalen-1-yl)ureido]-1H-pyrazol-1-yl}phenyl)-2-methylpropanoate] | 6.09 |  |
| CC(Cc1ccc(-n2nc(C(C)(C)C)cc2NC(=O)Nc2cccc3ccccc23)cc1)C(=O)O (stereo not shown) [Example 428, 3-(4-{3-t-butyl-5-[3-(naphthalen-1-yl)ureido]-1H-pyrazol-1-yl}phenyl)-2-methylpropanoic acid] | 6.85 |  |
| CCOC(=O)C(C)Cc1ccc(-n2nc(C(C)(C)C)cc2NC(=O)Nc2ccc(Cl)cc2)cc1 (stereo not shown) [Example 429, ethyl 3-(4-{3-t-butyl-5-[3-(4-chlorophenyl)ureido]-1H-pyrazol-1-yl}phenyl)-2-methylpropanoate] | 5.97 |  |
| CC(Cc1ccc(-n2nc(C(C)(C)C)cc2NC(=O)Nc2ccc(Cl)cc2)cc1)C(=O)O (stereo not shown) [Example 430, 3-(4-{3-t-butyl-5-[3-(4-chlorophenyl)ureido]-1H-pyrazol-1-yl}phenyl)-2-methylpropanoic acid] | 6.03 |  |
| CC(C)(O)c1cccc(-n2nc(-c3ccccc3)cc2NC(=O)Nc2cccc3ccccc23)c1 [Example 432, 1-{1-[3-(2-hydroxypropan-2-yl)phenyl]-3-phenyl-1H-pyrazol-5-yl}-3-(naphthalen-1-yl)urea] |  | inhibition at 1 µM [1]: 9%; inhibition at 10 µM [1]: 24% |
| O=C(Nc1ccc(Cl)cc1)Nc1cc(-c2ccccc2)nn1-c1ccc(CO)cc1 [Example 434, 1-(4-chlorophenyl)-3-{1-[4-(hydroxymethyl)phenyl]-3-phenyl-1H-pyrazol-5-yl}-urea] | 5.72 |  |
| CC(C)c1cc(NC(=O)Nc2cccc3ccccc23)n(-c2cccc(C(C)(C)O)c2)n1 [Example 436, 1-{1-[3-(2-hydroxypropan-2-yl)phenyl]-3-isopropyl-1H-pyrazol-5-yl}-3-(naphthalen-1-yl)urea] |  | inhibition at 0.1 µM (read-out: % Inhibition @ concentration, Table 3, at 0.1 uM): 16%; inhibition at 1 µM [1]: 41% |
| CC(C)c1cc(NC(=O)Nc2ccc(Cl)cc2)n(-c2ccc(CO)cc2)n1 [Example 438, 1-(4-chlorophenyl)-3-{1-[4-(hydroxymethyl)phenyl]-3-isopropyl-1H-pyrazol-5-yl}-urea] | 5.89 |  |
| CC(C)(O)c1cccc(-n2nc(C(F)(F)F)cc2NC(=O)Nc2cccc3ccccc23)c1 [Example 440] | 6.04 |  |
| O=C(Nc1ccc(Cl)cc1)Nc1cc(C(F)(F)F)nn1-c1ccc(CO)cc1 [Example 442, 1-(4-chlorophenyl)-3-{3-(trifluoromethyl)-1-[4-(hydroxyl-methyl)phenyl]-1H-pyrazol-5-yl}urea] | 5.52 |  |
| Cc1cc(NC(=O)Nc2cccc3ccccc23)n(-c2cccc(C(C)(C)O)c2)n1 [Example 444, 1-{1-[3-(2-hydroxypropan-2-yl)phenyl]-3-methyl-1H-pyrazol-5-yl}-3-(naphthalen-1-yl)urea] | 5.30 |  |
| Cc1cc(NC(=O)Nc2cccc(Cl)c2Cl)n(-c2ccc(CO)cc2)n1 [Example 450, 1-(2,3-dichlorophenyl)-3-{1-[4-(hydroxymethyl)phenyl]-3-methyl-1H pyrazol-5-yl)urea] |  | inhibition at 1 µM [1]: 89%; inhibition at 10 µM [1]: 192% |
| Cc1cc(NC(=O)Nc2cccc3ccccc23)n(-c2ccc(C(O)C(F)(F)F)cc2)n1 (stereo not shown) [Example 451, 1-{3-methyl-1-[4-(2,2,2-trifluoro-1-hydroxyethyl)phenyl]-1H-pyrazol-5-yl}-3-(naphthalen-1-yl)urea] |  | inhibition at 1 µM [1]: 3% |
| O=C(Nc1cccc(Cl)c1)Nc1cc(-c2ccccc2)nn1-c1cccc(CO)c1 [Example 455, 1-{3-phenyl-1-[3-(hydroxymethyl)phenyl]-1H-pyrazol-5-yl}-3-(3-chlorophenyl)urea] | 7.00 |  |
| O=C(Nc1cccc(Br)c1)Nc1cc(-c2ccccc2)nn1-c1cccc(CO)c1 [Example 456, 1-(3-bromophenyl)-3-{1-[3-(hydroxymethyl)phenyl]-3-phenyl-1H-pyrazol-5-yl}urea] | 7.40 |  |
| O=C(Nc1cccc(C(F)(F)F)c1)Nc1cc(-c2ccccc2)nn1-c1cccc(CO)c1 [Example 457, 1-{3-phenyl-1-[3-(hydroxymethyl)phenyl]-1H-pyrazol-5-yl}-3-(3-trifluoromethylphenyl)urea] | 5.96 |  |
| COc1cccc(NC(=O)Nc2cc(-c3ccccc3)nn2-c2cccc(CO)c2)c1 [Example 458, 1-{3-phenyl-1-[3-(hydroxymethyl)phenyl]-1H-pyrazol-5-yl}-3-(3-methoxyphenyl)urea] | 6.00 |  |
| O=C(Nc1cccc(Cl)c1Cl)Nc1cc(-c2ccccc2)nn1-c1cccc(CO)c1 [Example 459, 1-{3-phenyl-1-[3-(hydroxymethyl)phenyl]-1H-pyrazol-5-yl}-3-(2,3-dichlorophenyl)urea] | 7.70 |  |
| CC(C)(C)c1cc(NC(=O)Nc2cccc3ccccc23)n(-c2ccc(CO)cc2)n1 [Example 461, 1-{3-t-butyl-1-[4-(hydroxymethyl)phenyl]-1H-pyrazol-5-yl}-3-(naphthalen-1-yl)urea] | 7.77 |  |

| SMILES | pIC50 | other results |
| --- | --- | --- |
| CC(O)c1ccc(-n2nc(C(C)(C)C)cc2NC(=O)Nc2cccc3ccccc23)cc1 (stereo not shown) [Example 463, 1-{3-t-butyl-1-[4-(1-hydroxyethyl)phenyl]-1H-pyrazol-5-yl}-3-(naphthalen-1-yl)urea] | 7.25 |  |
| C#CC(O)c1ccc(-n2nc(C(C)(C)C)cc2NC(=O)Nc2cccc3ccccc23)cc1 (stereo not shown) [Example 464, 1-{3-t-butyl-1-[4-(1-hydroxyprop-2-ynyl)phenyl]-1H-pyrazol-5-yl}-3-(naphthalen-1-yl)urea] | 7.72 |  |
| CC(C)(C)c1cc(NC(=O)Nc2cccc(Cl)c2Cl)n(-c2ccc(CO)cc2)n1 [Example 466, 1-{3-t-butyl-1-[4-(hydroxymethyl)phenyl]-1H-pyrazol-5-yl}-3-(2,3-dichloro-phenyl)urea] | 8.15 |  |
| CC(C)(C)c1cc(NC(=O)Nc2cccc(Cl)c2Cl)n(-c2ccc(C(C)(C)O)cc2)n1 [Example 467, 1-{3-t-butyl-1-[4-(2-hydroxypropan-2-yl)phenyl]-1H-pyrazol-5-yl}-3-(2,3-dichlorophenyl)urea] | 6.92 |  |
| CC(C)(C)c1cc(NC(=O)Nc2cccc(Cl)c2Cl)n(-c2ccc(C(=O)O)cc2)n1 [Example 468, 4-{3-t-butyl-5-[3-(2,3-dichlorophenyl)ureido]-1H-pyrazol-1-yl}benzoic acid] | 8.07 |  |
| CC(O)c1cccc(-n2nc(C(C)(C)C)cc2NC(=O)Nc2cccc3ccccc23)c1 (stereo not shown) [Example 472, 1-{3-t-butyl-1-[3-(1-hydroxyethyl)phenyl]-1H-pyrazol-5-yl}-3-(naphthalen-1yl)urea] | 7.30 |  |
| C#CC(O)c1cccc(-n2nc(C(C)(C)C)cc2NC(=O)Nc2cccc3ccccc23)c1 (stereo not shown) [Example 473, 1-{3-t-butyl-1-[3-(1-hydroxyprop-2-ynyl)phenyl]-1H-pyrazol-5-yl}-3-(naphthalen-1-yl)urea] | 8.40 |  |
| CCOC(=O)c1cccc(-n2nc(C(C)(C)C)cc2NC(=O)Nc2cccc(Cl)c2Cl)c1 [Example 474, ethyl 3-{3-t-butyl-5-[3-(2,3-dichlorophenyl)ureido]-1H-pyrazol-1-yl}benzoate] | 6.42 |  |
| CC(C)(C)c1cc(NC(=O)Nc2cccc(Cl)c2Cl)n(-c2cccc(CO)c2)n1 [Example 475, 1-[3-t-butyl-1-(3-hydroxymethyl-phenyl)-1H-pyrazol-5-yl]-3-(2,3-dichlorophenyl)-urea] | 8.00 |  |
| CC(C)(C)c1cc(NC(=O)Nc2cccc(Cl)c2Cl)n(-c2cccc(C(C)(C)O)c2)n1 [Example 476, 1-{3-t-butyl-1-[3-(2-hydroxypropan-2-yl)phenyl]-1H-pyrazol-5-yl}-3-(2,3-dichlorophenyl)urea] | 7.62 |  |
| CC(C)(C)c1cc(NC(=O)Nc2cccc(Cl)c2Cl)n(-c2cccc(C(=O)O)c2)n1 [Example 477, 3-{3-t-butyl-5-[3-(2,3-dichlorophenyl)ureido]-1H-pyrazol-1-yl}benzoic acid] | 7.38 |  |
| CC(C)(C)c1cc(NC(=O)Nc2ccc(Cl)cc2)n(-c2cccc(CN3C(=O)NC(=O)C3=O)c2)n1 [Example 481, 1-{3-t-butyl-2-{3-[(2,4,5-trioxoimidazolidin-1-yl)methyl]phenyl}-1H-pyrazol-3-yl}-3-(4-chlorophenyl)urea] | 6.64 |  |
| CC(C)(C)c1cc(NC(=O)Nc2cccc3ccccc23)n(-c2cccc(CN3C(=O)C(=O)NS3(=O)=O)c2)n1 [Example 482, 1-{5-t-butyl-2-[3-(1,1,3,4-tetraoxo-1λ^6-[1,2,5]thiadiazolidin-2-ylmethyl)phenyl]-2H-pyrazol-3-yl}-3-(naphthalen-1-yl)urea] | 7.08 |  |
| CC(C)(C)c1cc(NC(=O)Nc2ccc(Cl)cc2)n(-c2cccc(CN3C(=O)C(=O)NS3(=O)=O)c2)n1 [Example 483, 1-{5-t-butyl-2-[3-(1,1,3,4-tetraoxo-1λ^6-[1,2,5]thiadiazolidin-2-ylmethyl)phenyl]-2H-pyrazol-3-yl}-3-(4-chlorophenyl)urea] | 6.57 |  |
| CC(C)(C)c1cc(NC(=O)Nc2cccc3ccccc23)n(-c2cccc(CNC(=O)N3CCOCC3)c2)n1 [Example 485, 1-(3-t-butyl-1-{3-[(morpholine-4-carboxamido)methyl]phenyl}-1H-pyrazol-5-yl)-3-(naphthalen-1-yl)urea] | 7.30 |  |
| CC(C)(C)c1cc(NC(=O)Nc2cccc3ccccc23)n(-c2cccc(CNC(=O)N3CCCC3)c2)n1 [Example 486, 1-(3-t-butyl-1-{3-[(pyrrolidine-1-carboxamido)methyl]phenyl}-1H-pyrazol-5-yl)-3-(naphthalen-1-yl)urea] | 7.24 |  |
| CN(C)C(=O)NCc1cccc(-n2nc(C(C)(C)C)cc2NC(=O)Nc2cccc3ccccc23)c1 [Example 487, 1-{3-t-butyl-1-[3-(3,3-dimethylureidomethyl)phenyl]-1H-pyrazol-5-yl}-3-(naphthalen-1-yl)urea] | 7.42 |  |
| CC(C)(C)c1cc(NC(=O)Nc2ccc(Cl)cc2)n(-c2cccc(CNC(=O)N3CCCCC3)c2)n1 [Example 488, 1-(3-t-butyl-1-{3-{(piperidine-1-carboxamido)methyl]phenyl}-1H-pyrazol-5-yl)-3-(4-chlorophenyl)urea] | 6.27 |  |
